Patent US7781187B2, “Fluorescent dyes” (Corning Incorporated, priority 2005, dated 2010)
Like-named read-outs stand apart in the source and are kept apart here.

Experiments:
[1] = Fluorescence excitation and emission spectra of the dyes in buffer (Fluorolog-3 spectrometer); type: physicochemical; design: key to Excitation max. / Emission max.: peak wavelengths in nm
Text: The fluorescence of the exemplary fluorescent dyes in buffer was examined on a Fluorolog®-3 (a trademark of Spex Industries Inc.) spectrometer. The fluorescent dyes of the present invention have large Stokes shifts; the excitation and emission maxima are close to or greater than 100 nm apart. Peak wavelengths are tabulated in Table 2 along with two commercially available fluorescent dyes, TOTO-1TM and YO-[…]TM (trademarks of Molecular Probes, Inc.). The Stokes shifts of TOTO-1TM and YO-[…]TM are small in comparison to the dyes of the present invention.

dsDNA (20 mer) = assay: Emission intensity of dye with equimolar dsDNA relative to free dye (fluorescence spectrometer); conditions: for direction of change in emission intensity upon addition of DNA / effect of ssDNA and dsDNA on dye emission: FIG. 2; for Free dye rel. to dsDNA: equimolar dsDNA (20 mer), emission intensity ratio
Text: (§1) FIG. 2 illustrates the effect of ssDNA and dsDNA on dye emission. […] All the dyes reported here show a larger change in emission intensity upon the addition of dsDNA than they do upon the addition of ssDNA; in some cases (GA, 95) this change is positive, in others it is negative (HE, HE-HE, FI).
Emission intensities of the fluorescent dyes of the present invention and TOTO-1™ at 1×10^−5 M in 1×PCR buffer were compared in the absence of DNA (free dye emission) and in the presence of equimolar dsDNA or ssDNA (20 mer) on the fluorescence spectrometer. […]

dsDNA [2] = assay: Titration of dyes with dsDNA in 96-well microplate (sensitivity and dynamic range, SpectraMax Gemini plate reader)
Experimental: The fluorescent dyes shown in Table 5 were titrated with dsDNA in order to determine the sensitivity (lowest detection limit) and dynamic range. A 96-well polystyrene Corning Costar® (a trademark of Corning Incorporated) microwell plate was loaded with 100 μL/well of dye mixed with various levels of dsDNA and incubated at room temperature for 2 hours allowing the mixture to equillibrate. The dye fluorescence was then measured on a SpectraMax® (a trademark of Molecular Devices Corp.) Gemini Plate-reader. Relative fluorescence units (RFU) were then plotted against DNA concentration in pg/μL.

dsDNA [3] = assay: ssDNA/dsDNA selectivity in the plate reader assay (FIG. 3)
Text: FIG. 3 illustrates the ssDNA/dsDNA selectivity of the fluorescent dyes of the present invention, HE-HE and 95, versus the commercially available fluorescent dye TOTO-1™ in the plate reader assay. […] By learning more about the binding modes of the disclosed dyes, it should be possible to design and synthesize members of the family optimized for dsDNA detection.

ssDNA (20 mer) = assay: Emission intensity of dye with equimolar ssDNA relative to free dye (fluorescence spectrometer); conditions: dye 1×10^−5 M in 1×PCR buffer; for change of the emission intensity in the presence of ssDNA: equimolar ssDNA; for Free dye rel. to ssDNA: equimolar ssDNA (20 mer), emission intensity ratio
Text: as §1
Emission intensities of the fluorescent dyes of the present invention and TOTO-1™ at 1×10^−5 M in 1×PCR buffer were compared in the absence of DNA (free dye emission) and in the presence of equimolar dsDNA or ssDNA (20 mer) on the fluorescence spectrometer.
The fluorescent dyes of the present invention have a large Stokes shift allowing the use of less sophisticated equipment for the detection of the emission intensity.

[4] = Stokes shift of MH dyes (FIG. 4); type: physicochemical
Text: Unlike Fluorescein and other commercially available dyes whose peak excitation and emission wavelengths are extremely close the MH dyes have ˜200 nm between peaks.

[5] = test system: double-stranded DNA (dsDNA); conditions: on a microplate reader; cited from earlier work
[6] = commercial dye data from Molecular Probes catalog; cited from earlier work
[7] = dye 1×10^−5 M in 1×PCR buffer, equimolar dsDNA

SMILES | Emission max. [1] | Excitation max. [1] | Stokes shift [1] | direction of change in emission intensity upon addition of DNA (dsDNA (20 mer)) | ssDNA/dsDNA selectivity (dsDNA [3]) | Free dye rel. to dsDNA (dsDNA (20 mer); dye 1×10^−5 M in 1×PCR buffer) | Free dye rel. to ssDNA (ssDNA (20 mer)) | also measured
C[n+]1c(/C=C/c2ccc(N(CCO)CCO)cc2)sc2ccccc21 [Dye 95] | 585 | 500 | 85 nm | positive | significant preference for dsDNA |  |  | dynamic range compared with TOTO-1™ (dsDNA [2]): larger dynamic range; sensitivity compared with TOTO-1™ (dsDNA [2]): comparable
C[n+]1c(/C=C/c2ccc(SCCO)cc2)sc2ccccc21 [FI] | 546 | 382 | 164 nm | negative |  | 28.7 | 0.98 | effect of ssDNA and dsDNA on dye emission (dsDNA (20 mer)): most pronounced; change of the emission intensity in the presence of dsDNA (dsDNA (20 mer); [7]): 28.7 times; change of the emission intensity in the presence of ssDNA (ssDNA (20 mer)): very little change
CN(CCO)c1ccc(/C=C/c2sc3ccccc3[n+]2C)cc1 [GA] | 587 | 512 | 75 nm | positive |  |  |  | 
C[n+]1c(/C=C/c2ccc(OCCOCCOCCOc3ccc(/C=C/c4sc5ccccc5[n+]4C)cc3)cc2)sc2ccccc21 [HE-HE] | 616 | 400 | 216 nm | negative | only slightly more sensitive towards dsDNA than ssDNA | 13.5 | 1.19 | effect of ssDNA and dsDNA on dye emission (dsDNA (20 mer)): most pronounced; change of the emission intensity in the presence of dsDNA (dsDNA (20 mer); [7]): 13.5 times; dynamic range compared with TOTO-1™ (dsDNA [2]): greater dynamic range; sensitivity compared with TOTO-1™ (dsDNA [2]): more sensitive
COc1ccc(/C=C/c2sc3ccccc3[n+]2C)cc1 [HE] | 500 | 385 | 115 nm | negative |  |  |  | 
CN(C)c1ccc(/C=C/c2ccc(C(=O)[O-])s2)cc1.[Li+] [MH1] |  |  |  |  |  |  |  | Stokes shift (between peak excitation and emission wavelengths) [4]: ~200 nm
O=C([O-])c1ccc(-c2ccc(/C=C/c3ccc(N(CCO)CCO)cc3)s2)s1.[Na+] [MH3] |  |  |  |  |  |  |  | Stokes shift (between peak excitation and emission wavelengths) [4]: ~200 nm
CN(C)CCCN(CCCN(C)C)c1cc(C=C2Sc3ccccc3N2C)c2ccccc2[n+]1-c1ccccc1 [PicoGreen™] |  |  |  |  |  |  |  | dynamic range [5]: ~3 orders of magnitude; sensitivity for double-stranded DNA (dsDNA) [5]: 250 pg/mL
CN1/C(=C/c2cc[n+](CCC[N+](C)(C)CCC[N+](C)(C)CCC[n+]3ccc(/C=C4\Sc5ccccc5N4C)c4ccccc43)c3ccccc23)Sc2ccccc21.[I-].[I-].[I-].[I-] [TOTO-1™, reference compound] |  |  |  |  | superior selectivity | 0.003 | 0.95 | change of the emission intensity upon interaction with dsDNA (dsDNA (20 mer); [7]): ~3 orders of magnitude; change of the emission intensity in the presence of ssDNA (ssDNA (20 mer)): very little change; Emission max. [6]: 533; Excitation max. [6]: 514; Stokes shift [6]: 19 nm
CN1C(=CC=Cc2cc[n+](CCC[N+](C)(C)C)c3ccccc23)Oc2ccccc21.[I-].[I-] [YO-PRO-3 ™] |  |  |  |  |  |  |  | Emission max. [6]: 631; Excitation max. [6]: 612; Stokes shift [6]: 19 nm
